Results reported in PMC10600239, “Selective MCL-1 inhibitor ABBV-467 is efficacious in tumor models but is associated with cardiac troponin increases in patients” (Communications Medicine, 2023).
Where “and” joins values, the source holds several entries; their conditions need not be identical. Equal entries are not always repeated. Where two headings read alike, the source gives them in different places.

What was measured:
H929 cells = assay: In vitro cell viability assay (CellTiter-Glo); format: cell-based, human
Protocol: All cell lines were grown and treated in RPMI 1640 or Dulbecco’s modified Eagle medium (Sigma, St. Louis, MO) supplemented with 10% fetal bovine serum (Gibco) or 10% human serum (Sigma) and maintained in a humidified incubator at 5% CO2 and 37 °C. DLD-1, MV4-11, NCI-H929 (all ATCC, Manassas, VA, USA) and AMO-1 (DSMZ, Braunschweig, Germany) cells were plated 4000 cells per well in 384-well tissue culture plates and treated with compounds of interest for 24 h at 37 °C, 5% CO2 humidified incubator. Each concentration was tested in duplicate at least 3 separate times. Adherent cells were allowed to adhere overnight prior to treatment. Alternatively, AMO-1 or NCI-H929 cells were treated with ABBV-467 for the indicated contact times (1–24 h) at 37 °C in a 5% CO2 humidified incubator and washed 3 times with compound-free media prior to incubation for the remainder of a 24-h treatment period. Cell viability was subsequently determined using CellTiter-Glo (Promega, Madison, WI, USA) according to the manufacturer’s instructions.
For in vitro viability assays, mean EC50 and EC90 values were determined from the resulting dose-response curves from at least 3 independent experiments, and depict the mean ± standard error of the mean.
Fig. 2 Apoptosis induced by ABBV-467 is mechanism based and induces cell death in MCL-1-dependent cell lines after short target engagement periods. H929 cells were treated with ABBV-467 in the presence or absence of the pan-caspase inhibitor z-VAD-fmk (50 µM) and the impact on caspase-3/7 activation (a), mitochondrial membrane potential (ΔΨm; b), and apoptosis (c) determined. Alternatively, BAK-deficient SKBR3 cells were treated with ABBV-467 for 24 h and the impact on cell viability compared with the parental cell line, determined by CellTiter-Glo. Inset depicts a western blot of BAK and BAX expression in SKBR3 cell variants using GAPDH as a loading control. Each of the 3 proteins were probed on separate blots (d). Data in (a–d) are presented as the mean ± standard error of the mean. H929 and AMO-1 cells were treated with ABBV-467 at the indicated concentrations and the impact on caspase-3/7 activation and viability (DRAQ7-positive) cells determined over time by Incucyte®. Data are presented as the mean ± standard deviation (e). H929 or AMO-1 cells were cultured in media containing 10% human serum and treated with ABBV-467 for the indicated contact times. Cells were subsequently washed 3 times with drug-free media and incubated in drug-free media for the remainder of the 24-h treatment period at 37 °C before cell viability was determined by CellTiter-Glo. Mean EC50 and EC90 values were determined from the resulting dose-response curves from at least 3 independent experiments, each assessed in quadruplicate, and depict the mean ± standard error of the mean. Presented ABBV-467 dose-response curves in H929 and AMO-1 cells were compiled from at least 3 independent experiments (f).

monkey MCL1 = target: T1, monkey MCL1 (Macaca mulatta, UniProt F7HUE9); assay: TR-FRET binding assay, MCL-1 orthologs; design: species or system Monkey Macaca sp.
T1 construct: rhesus monkey (iso4, NM_001 1089 3 7, AA 171-327); made in house; host or cells: E. coli BL21(DE3)-T1R
T1 sequence (F7HUE9 171-327): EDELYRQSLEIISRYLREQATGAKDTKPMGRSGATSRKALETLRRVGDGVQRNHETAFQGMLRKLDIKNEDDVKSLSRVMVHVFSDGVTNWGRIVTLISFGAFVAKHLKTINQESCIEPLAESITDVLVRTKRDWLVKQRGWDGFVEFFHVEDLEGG
Protocol: Binding affinities for MCL-1, BCL-2, BCL-XL, BCL-W, and BCL2-A1 were determined using a time-resolved fluorescence resonance energy transfer (FRET) assay. Test compounds were serially diluted in DMSO starting at […] (20× starting concentration; 100% DMSO followed by a 1:10 dilution of the compound DMSO plate into assay buffer); 10 µL of the compound in 10% DMSO was then transferred into a 384-well plate (low-volume Corning #3673 assay plate). Glutathione S-transferase (GST)-tagged recombinant BCL-2, BCL-XL, MCL-1, BCL-W, or BCL2-A1 protein (1 nM each) were mixed with 100 nM Oregon Green™-labeled f-BAK peptide probe and 1 nM Tb-labeled anti-GST antibody were mixed. Then 10 µL of a 2× protein/probe/antibody mix was added to each well of increasing concentrations of test compound in assay buffer (20 mM potassium phosphate, pH 7.6, 50 mM NaCl, 1 mM ethylenediaminetetraacetic acid disodium salt dihydrate, 0.05% pluronic acid F-68, 1 mM DL-dithiothreitol) at room temperature (final concentrations listed in Supplementary Table S2). […] Fluorescence was measured on the EnVision™ (Perkin Elmer) using a 340/35-nm excitation filter and 520/525- (F-Bak) and 495/510-nm (Tb-labeled anti-glutathione S-transferase [GST] antibody) emission filters. Dissociation constants were determined using Wang’s equation[35]. […]
Amino acid sequence homology determined with NCBI BLAST (http://blast.ncbi.nlm.nih.gov). […]

SMILES: Cc1c(Cl)c2c(Cl)c(C)c1-c1c(-c3ccc(F)cc3)sc3ncnc(c13)O[C@@H](C(=O)O)Cc1cc(ccc1OCc1ccnc(-c3ccc(OC[C@H]4COCCO4)cc3)n1)OC[C@@H](CN1CCN(C)CC1)O2 [ABBV-467]
- EC50 (H929 cells; Homo sapiens, NCI-H929, 10% human serum, contact time 1 hr, washout, viability at 24 h, read-out: H929 Mean EC50): 84.5 nM
- EC50 (H929 cells; Homo sapiens, NCI-H929, 10% human serum, contact time 2 hr, washout, viability at 24 h, read-out: H929 Mean EC50): 61.8 nM
- EC90 (H929 cells; Homo sapiens, NCI-H929, 10% human serum, contact time 2 hr, washout, viability at 24 h, read-out: H929 Mean EC90): 236000 pM
- EC50 (H929 cells; Homo sapiens, NCI-H929, 10% human serum, contact time 4 hr, washout, viability at 24 h, read-out: H929 Mean EC50): 18.9 nM
- EC50 (H929 cells; Homo sapiens, NCI-H929, 10% human serum, contact time 6 hr, washout, viability at 24 h, read-out: H929 Mean EC50): 11.7 nM
- EC90 (H929 cells; Homo sapiens, NCI-H929, 10% human serum, contact time 6 hr, washout, viability at 24 h, read-out: H929 Mean EC90): 108000 pM
- EC50 (H929 cells; Homo sapiens, NCI-H929, 24 h, 10% human serum, contact time 24 hr, read-out: H929 Mean EC50): 1.5 nM
- EC90 (H929 cells; Homo sapiens, NCI-H929, 24 h, 10% human serum, contact time 24 hr, read-out: H929 Mean EC90): 5600 pM
- EC50 (H929 cells; Homo sapiens, NCI-H929, 24 h, read-out: H929 EC50 (nM, 10% FBS), 10% FBS, 24 h continuous treatment): 0.4 nM
- EC50 (H929 cells; Homo sapiens, NCI-H929, NCI-H929, arithmetic mean, read-out: Arithmetic Mean EC50 µM): 0.468 nM
- EC90 (H929 cells; Homo sapiens, NCI-H929, read-out: H929 Mean EC90, 10% human serum, contact time 1 hr, washout, viability at 24 h): 458000 pM
- EC90 (H929 cells; Homo sapiens, NCI-H929, read-out: H929 Mean EC90, 10% human serum, contact time 4 hr, washout, viability at 24 h): 133000 pM
- EC50 (H929 cells; NCI-H929, individual determinations, read-out: Individual EC50): 0.595 nM and 0.693 nM and 0.692 nM and 0.364 nM and 0.531 nM and 0.29 nM and 0.314 nM and 0.373 nM and 0.366 nM and 0.36 nM and 0.313 nM and 0.717 nM and 0.472 nM
- EC50 (H929 cells; read-out: H929 EC50 (nM, 10% FBS), 10% FBS, 24 h continuous treatment): 0.47 nM
- Ki (monkey MCL1): < 100 pM
